Key:
Assay type in all cases: in vivo
Lolium perenne (LOLPE) [1] = experiment: Test Example 1, pre-emergence herbicidal test; conditions: 480 h, evaluated 20 days later, 100=total damage to plant, 0=no damage to plant
Method: (§1) Monocotyledonous and dicotyledonous test plants were sown in standard soil in pots. After cultivation for one day (pre-emergence) or after 10 days cultivation (post-emergence) under controlled conditions in a glasshouse, the plants were sprayed with an aqueous spray solution derived from the formulation of the technical active ingredient in 0.6 ml acetone and 45 ml formulation solution containing 10.6% Emulsogen EL (Registry number 61791-12-6), 42.2% N-methylpyrrolidone, 42.2% dipropylene glycol monomethyl ether (Registry number 34590-94-8) and 0.2% X-77 (Registry number 11097-66-8). The test plants were then grown in a greenhouse under optimum conditions until, 15 days later for post-emergence and 20 days for pre-emergence, the test was evaluated (100=total damage to plant; 0=no damage to plant). Test Plants: Lolium perenne (LOLPE), Setaria faberi (SETFA), Digitaria sanguinalis (DIGSA), Alopecurus myosuroides (ALOMY), Echinochloa crus-galli (ECHCG) and Avena fatua (AVEFA), Pre-Emergence Data: […]

[2] = tested on: Digitaria sanguinalis (DIGSA); experiment: Test Example 1, pre-emergence herbicidal test; conditions: 480 h, evaluated 20 days later, 100=total damage to plant, 0=no damage to plant
Method: as §1

Setaria faberi (SETFA) [3] = experiment: Test Example 1, pre-emergence herbicidal test; conditions: 480 h, evaluated 20 days later, 100=total damage to plant, 0=no damage to plant, read-out: SEFTA damage to plant
Method: as §1

[4] = tested on: Alopecurus myosuroides (ALOMY); experiment: Test Example 1, pre-emergence herbicidal test; conditions: 480 h, evaluated 20 days later, 100=total damage to plant, 0=no damage to plant
Method: as §1

[5] = tested on: Echinochloa crus-galli (ECHCG); experiment: Test Example 1, pre-emergence herbicidal test; conditions: 480 h, evaluated 20 days later, 100=total damage to plant, 0=no damage to plant
Method: as §1

Avena fatua (AVEFA) [6] = experiment: Test Example 1, pre-emergence herbicidal test; conditions: 480 h, evaluated 20 days later, 100=total damage to plant, 0=no damage to plant
Method: as §1

Lolium perenne (LOLPE) [7] = experiment: Test Example 1, post-emergence herbicidal test; conditions: 360 h, evaluated 15 days later, 100=total damage to plant, 0=no damage to plant
Method: as §1, with “Post-Emergence” for “Pre-Emergence”

[8] = tested on: Digitaria sanguinalis (DIGSA); experiment: Test Example 1, post-emergence herbicidal test; conditions: 360 h, evaluated 15 days later, 100=total damage to plant, 0=no damage to plant
Method: as §1, with “Post-Emergence” for “Pre-Emergence”

Setaria faberi (SETFA) [9] = experiment: Test Example 1, post-emergence herbicidal test; conditions: 360 h, evaluated 15 days later, 100=total damage to plant, 0=no damage to plant, read-out: SEFTA damage to plant
Method: as §1, with “Post-Emergence” for “Pre-Emergence”

[10] = tested on: Alopecurus myosuroides (ALOMY); experiment: Test Example 1, post-emergence herbicidal test; conditions: 360 h, evaluated 15 days later, 100=total damage to plant, 0=no damage to plant
Method: as §1, with “Post-Emergence” for “Pre-Emergence”

[11] = tested on: Echinochloa crus-galli (ECHCG); experiment: Test Example 1, post-emergence herbicidal test; conditions: 360 h, evaluated 15 days later, 100=total damage to plant, 0=no damage to plant
Method: as §1, with “Post-Emergence” for “Pre-Emergence”

Avena fatua (AVEFA) [12] = experiment: Test Example 1, post-emergence herbicidal test; conditions: 360 h, evaluated 15 days later, 100=total damage to plant, 0=no damage to plant
Method: as §1, with “Post-Emergence” for “Pre-Emergence”

[13] = tested on: Alopecurus myosuroides (ALOMY); experiment: Test Example B, pre-emergence herbicidal test; conditions: 312 h, evaluated after 13 days, 100=total damage to plant, 0=no damage to plant
Method: (§2) Seeds of a variety of test species were sown in standard soil in pots. After cultivation for one day (pre-emergence) or after 8 days cultivation (post-emergence) under controlled conditions in a glasshouse (at 24/16° C., day/night; 14 hours light; 65% humidity), the plants were sprayed with an aqueous spray solution derived from the formulation of the technical active ingredient in acetone/water (50:50) solution containing 0.5% Tween 20 (polyoxyethelyene sorbitan monolaurate, CAS RN 9005-64-5). The test plants were then grown in a glasshouse under controlled conditions in a glasshouse (at 24/16° C., day/night; 14 hours light; 65% humidity) and watered twice daily. After 13 days for pre and post-emergence, the test was evaluated (100=total damage to plant; 0=no damage to plant). Test Plants: Setaria faberi (SETFA), Alopecurus myosuroides (ALOMY), Echinochloa crus-galli (ECHCG), and Avena fatua (AVEFA).

[14] = tested on: Echinochloa crus-galli (ECHCG); experiment: Test Example B, pre-emergence herbicidal test; conditions: 312 h, evaluated after 13 days, 100=total damage to plant, 0=no damage to plant
Method: as §2

Avena fatua (AVEFA) [15] = experiment: Test Example B, pre-emergence herbicidal test; conditions: 312 h, evaluated after 13 days, 100=total damage to plant, 0=no damage to plant
Method: as §2

[16] = tested on: Alopecurus myosuroides (ALOMY); experiment: Test Example B, post-emergence herbicidal test; conditions: 312 h, evaluated after 13 days, 100=total damage to plant, 0=no damage to plant
Method: as §2

[17] = tested on: Echinochloa crus-galli (ECHCG); experiment: Test Example B, post-emergence herbicidal test; conditions: 312 h, evaluated after 13 days, 100=total damage to plant, 0=no damage to plant
Method: as §2

Avena fatua (AVEFA) [18] = experiment: Test Example B, post-emergence herbicidal test; conditions: 312 h, evaluated after 13 days, 100=total damage to plant, 0=no damage to plant
Method: as §2

| Compound | pest or weed control at 250 g/ha (Lolium perenne (LOLPE) [1]) [%] | pest or weed control at 250 g/ha [2] [%] | pest or weed control at 250 g/ha (Setaria faberi (SETFA) [3]) [%] | pest or weed control at 250 g/ha [4] [%] | pest or weed control at 250 g/ha [5] [%] | pest or weed control at 250 g/ha (Avena fatua (AVEFA) [6]) [%] | pest or weed control at 125 g/ha (Lolium perenne (LOLPE) [7]) [%] | pest or weed control at 125 g/ha [8] [%] | pest or weed control at 125 g/ha (Setaria faberi (SETFA) [9]) [%] | pest or weed control at 125 g/ha [10] [%] | pest or weed control at 125 g/ha [11] [%] | pest or weed control at 125 g/ha (Avena fatua (AVEFA) [12]) [%] | pest or weed control at 250 g/ha [13] [%] | pest or weed control at 250 g/ha [14] [%] | pest or weed control at 250 g/ha (Avena fatua (AVEFA) [15]) [%] | pest or weed control at 250 g/ha [16] [%] | pest or weed control at 250 g/ha [17] [%] | pest or weed control at 250 g/ha (Avena fatua (AVEFA) [18]) [%] |
| --- | --- | --- | --- | --- | --- | --- | --- | --- | --- | --- | --- | --- | --- | --- | --- | --- | --- | --- |
| CCc1ccc(-c2ccc(Cl)cc2)cc1C1=C(O)[C@H]2[C@H]3C=C[C@](OC)(CC3)[C@H]2C1=O (racemic) [Compound T8, rac-(3aS,4R,7R,7aS)-2-(4′-chloro-4-ethylbiphenyl-3-yl)-4-methoxy-3a,4,7,7a-tetrahydro-4,7-ethanoindene-1,3-dione] | 70 | 100 | 90 | 60 | 100 | 10 | 0 | 100 | 80 | 70 | 100 | 10 | – | – | – | – | – | – |
| CCc1cc(C)cc(CC)c1C1=C(O)[C@H]2[C@H]3CC[C@H](CC3)[C@H]2C1=O (racemic) [Compound T48, rac-(7R,8S)-2-(2,6-diethyl-4-methylphenyl)hexahydro-4,7-ethanoindene-1,3-dione] | 100 | 100 | 100 | 100 | 100 | 70 | 100 | 100 | 80 | 80 | 90 | 70 | – | – | – | – | – | – |
| CCc1ccc(-c2ccc(Cl)c(Cl)c2)cc1C1=C(O)[C@H]2[C@H]3CC[C@H](C3)[C@H]2C1=O [Compound T31] | – | – | – | – | – | – | – | – | – | – | – | – | 20 | 80 | 70 | 60 | 100 | 70 |
| CCc1ccc(-c2ccc(Cl)c(C(F)(F)F)c2)cc1C1=C(O)[C@H]2[C@H]3CC[C@H](C3)[C@H]2C1=O [Compound T33] | – | – | – | – | – | – | – | – | – | – | – | – | 20 | 100 | 30 | 70 | 90 | 70 |
| CCc1ccc(-c2ccc(Cl)s2)cc1C1=C(O)[C@H]2[C@H]3CC[C@H](C3)[C@H]2C1=O [Compound T34] | – | – | – | – | – | – | – | – | – | – | – | – | 30 | 100 | 40 | 60 | 90 | 80 |
| CCc1ccc(-c2ccc(Cl)c(F)c2)cc1C1=C(O)[C@H]2[C@H]3CC[C@H](C3)[C@H]2C1=O [Compound T35] | – | – | – | – | – | – | – | – | – | – | – | – | 80 | 90 | 70 | 90 | 90 | 90 |
| CCc1ccc(-c2ccc(Cl)nc2)cc1C1=C(O)[C@H]2[C@H]3CC[C@H](C3)[C@H]2C1=O [Compound T36] | – | – | – | – | – | – | – | – | – | – | – | – | 30 | 80 | 40 | 0 | 50 | 20 |
| CCc1ccc(-c2ccc(Cl)nc2Cl)cc1C1=C(O)[C@H]2[C@H]3CC[C@H](C3)[C@H]2C1=O [Compound T37] | – | – | – | – | – | – | – | – | – | – | – | – | 50 | 90 | 70 | 70 | 90 | 0 |
| CCc1ccc(-c2c(F)cc(Cl)cc2Cl)cc1C1=C(O)[C@H]2[C@H]3CC[C@H](C3)[C@H]2C1=O [Compound T38] | – | – | – | – | – | – | – | – | – | – | – | – | 0 | 80 | 0 | 30 | 90 | 40 |
| CCc1ccc(-c2ccc(Cl)c(F)c2Cl)cc1C1=C(O)[C@H]2[C@H]3CC[C@H](C3)[C@H]2C1=O [Compound T39] | – | – | – | – | – | – | – | – | – | – | – | – | 40 | 100 | 70 | 70 | 100 | 50 |
| CCc1ccc(-c2ccc(Cl)c(F)c2F)cc1C1=C(O)[C@H]2[C@H]3CC[C@H](C3)[C@H]2C1=O [Compound T40] | – | – | – | – | – | – | – | – | – | – | – | – | 50 | 100 | 60 | 90 | 100 | 90 |
| CCc1ccc(-c2ccc(Cl)c(Cl)c2F)cc1C1=C(O)[C@H]2[C@H]3CC[C@H](C3)[C@H]2C1=O [Compound T41] | – | – | – | – | – | – | – | – | – | – | – | – | 0 | 50 | 0 | 0 | 90 | 60 |
| CCc1ccc(-c2c(F)cc(Cl)cc2Cl)cc1C1=C(O)[C@H]2[C@H]3CC[C@H](CC3)[C@H]2C1=O [Compound T42] | – | – | – | – | – | – | – | – | – | – | – | – | 0 | 0 | 0 | 0 | 80 | 40 |
| CCc1ccc(-c2ccc(Cl)c(F)c2Cl)cc1C1=C(O)[C@H]2[C@H]3CC[C@H](CC3)[C@H]2C1=O [Compound T43] | – | – | – | – | – | – | – | – | – | – | – | – | 0 | 40 | 20 | 70 | 100 | 30 |
| CCc1ccc(-c2ccc(Cl)c(F)c2F)cc1C1=C(O)[C@H]2[C@H]3CC[C@H](CC3)[C@H]2C1=O [Compound T44] | – | – | – | – | – | – | – | – | – | – | – | – | 0 | 70 | 20 | 90 | 100 | 80 |
| CCc1ccc(-c2ccc(F)cc2)cc1C1=C(O)[C@H]2[C@H]3CC[C@H](CC3)[C@H]2C1=O [Compound T46] | – | – | – | – | – | – | – | – | – | – | – | – | 20 | 80 | 0 | 50 | 100 | 30 |

Reference: patent US20120065066A1, “NOVEL HERBICIDES” (SYNGENTA CROP PROTECTION LLC, priority 2009, published 2012)
